# Measured values reported in patent US10010400B2, “Devices and methods for local delivery of drug to upper urinary tract” (TARIS Biomedical LLC, priority 2015, dated 2018).
# Assay: in vitro osmotic pumping of methylene blue up a capillary tube from a closed drug reservoir
# Type: physicochemical
# Conditions: reservoir with urea and lactose tablets in 125 mL degassed, deionized water; 36 cm capillary tube extended vertically
# Description: Another experimental system was designed to simulate a ureteral drug delivery device having a flexible elongate body with a bladder end portion and a kidney end portion, a drug reservoir located at the bladder end portion which contains a drug and has a semi-permeable wall, and a drug lumen (capillary tube) having a first opening into the drug reservoir and a second end opening at the kidney end portion of the flexible elongate body. The ureteral drug delivery device used in the experiments was configured to permit water to enter the drug reservoir through the semi-permeable wall to create an osmotic pressure to pump the drug from the drug reservoir through the capillary tube and out of the device through the second end opening.
# In this experiment, a drug reservoir similar to that illustrated in FIG. 11A was prepared. In particular, a spacer end piece was adhered using silicone adhesive within a tubular silicone housing. 10.5 cm of urea tablets, 4 cm of lactose tablets, and one tablet containing methylene blue were loaded into the tubular housing. A capillary tube (36 cm) having two spacers disposed in a spaced relationship at one end was slid into the tubular housing of the drug reservoir, adjacent the methylene blue tablet. […]
smiles,measurement,value
CN(C)c1ccc2nc3ccc(=[N+](C)C)cc-3sc2c1 [methylene blue],movement of the dye up the capillary tube,observed
